Patent US10513534B2, “2′-chloro nucleoside analogs for HCV infection” (priority 2012, dated 2019)
Like-named read-outs stand apart in the source and are kept apart here.

How the values were obtained:
[1] = Cytotoxicity evaluation, CellTiter-Blue Cell Viability Assay; conditions: human
HCV genotype 1b replicon = assay: HCV replicon assay (Zluc luciferase); assay type: cell-based; conditions: read-out: HCV Replicon EC50
In short: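 Zluc Huh-7 cells with HCV genotype 1b replicon and luciferase reporter treated with 5-fold dilutions (100 μM to 0.0000512 μM final) in duplicate, or at 1 and 10 μM. Luminescence read with ONE-glo; EC50 from dose-response fits, or % inhibition at the fixed concentrations.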

[2] = Liver triphosphate pharmacokinetics after single oral dose in CD-1 mice; assay type: in vivo; conditions: single oral dose 10 mg/kg in PEG 200;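 as to Ms Liver TP AUC: pmol·h/g liver normalized to a 1 µmol/kg dose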;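 as to Ms Liver TP Cmax: pmol/g liver normalized to a 1 µmol/kg dose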
Procedure: (§1) Internal standard solution was added to the homogenate followed by neutralization with 20% ammonium hydroxide solution and addition of 500 μL 1% formic acid. The tissue samples were extracted by weak anion exchange solid phase extraction (SPE). Post extraction, the eluates were evaporated under nitrogen, followed by reconstitution before injection onto the LC-MS/MS system.

[3] = Stability in intestinal microsomes; assay type: in vitro ADME; conditions: human intestinal microsomes 1.0 mg/mL, 10 μM, NADPH, 60 min
Procedure: (§2) Stability of test compounds were determined in human liver and intestinal microsomes in duplicate for each matrix. Pooled liver and intestinal microsomal proteins (1.0 mg/mL), suspended in incubation buffer (100 mM potassium phosphate, pH 7.4, 5 mM MgCl2, and 0.1 mM EDTA), were preincubated for 5 min at 37° C. with 10 μM of a test compound from a 10 mM stock solution in DMSO (final DMSO concentration was 0.1%); the reaction was initiated by the addition of NADPH (3 mM final concentration). At specific times (0 and 60 min), 0.1 mL samples were taken and the reaction terminated by the addition of 4 volumes of stop solution (acetonitrile with 500 ng/mL carbutamide as an internal standard). The samples were vortexed for 30 sec and then centrifuged at 16000×g for 10 min. 100 μL of supernatants were transferred to 96 deep-well plates preloaded with 100 μL distilled water and analyzed after mixing by LC-MS/MS. The MS peak area ratio of the test compound versus the internal standard was calculated and percent unchanged test compound over 60 minutes was calculated using this ratio.

[4] = Plasma nucleoside pharmacokinetics after single oral dose in CD-1 mice; assay type: in vivo; conditions: single oral dose 10 mg/kg in PEG 200;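 as to Ms Plasma nucleoside AUC: pmol·h/mL plasma normalized to a 1 µmol/kg dose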
In short: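 Mouse plasma was extracted by acetonitrile/0.2% formic acid protein precipitation using 2′-MeG-D3 or tiapride as internal standard. Nucleoside was quantified by positive-ion LC-MS/MS after C18 gradient separation. Calibration spanned 0.500 (LLOQ) to 200 ng/mL.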

in vitro = conditions: human
[5] = Stability in liver microsomes; assay type: in vitro ADME; conditions: human liver microsomes 1.0 mg/mL, 10 μM, NADPH, 60 min
Procedure: as §2

Huh-7 cells = assay: Release of active metabolite in Huh-7 cells; assay type: in vitro ADME
Procedure: Huh-7 cells were plated in 1 mL culture medium (DMEM, containing glucose, L-glutamine and sodium pyruvate, 10% FBS, 100 IU/mL penicillin, 100 μg/mL streptomycin, 2 mM GlutaMAX, 1% MEM non-essential amino acids) at the concentration 0.8, 0.4 and 0.2 million cells per well on 6 well plates for 24, 48 and 72 hr treatment, respectively. Plated cells were incubated overnight at 37° C. in an incubator.
The following morning test compound was diluted to 20 μM from a stock solution in DMSO in fresh culture medium pre-warmed to 37° C. and 1 mL of the solution/well was added to cells. A final medium volume per well was 2.0 mL, test compound concentration in well was 10 μM and final DMSO concentration was 0.1%.
After 24, 48 or 72 hr, the medium was carefully removed and cell monolayers were washed twice with 2 mL ice-cold PBS per well. Following the last wash, all PBS was carefully removed and 1.0 mL of extraction solution (ice-cold 70% methanol) added. The plate was tightly covered with Parafilm, plastic plate cover and Parafilm again and an intracellular content was extracted at −20° C. for 24 hr.
After 24 hr the extracts were transferred into polypropylene microfuge tubes and dry on a refrigerated centrivap concentrator. Dry residues were reconstituted in 250 μL of HPLC-grade water and centrifuged at 16,000×g for 10 min. Aliquots (100 μL each) of the supernatants were transferred into a 96 well plate and internal standard (4 ng/mL final concentration) was added as the internal standard (IS) for LC-MS/MS analysis.

Zluc cells = assay: Cytotoxicity evaluation, CellTiter-Blue Cell Viability Assay; conditions: Zluc cells, CellTiter-Blue
[6] = Plasma prodrug and nucleoside pharmacokinetics after single oral dose in cynomolgus monkeys; assay type: in vivo; conditions: single oral 10 mg/kg
Procedure: (§3) For each compound, a single oral dose at 10 mg/kg in PEG 200 (dose volume 3 mL/kg) was administered to cynomolgus monkeys. Untreated animals were used for the collection of control liver. Plasma samples were collected at 0.5, 1, 2, 4, 6, 8, 12 and 24 hours for compound 37, diastereomer 2.
Plasma samples were analyzed for the prodrug and nucleoside by LC-MS/MS. For protein precipitation and extraction, each plasma sample (50 μL) was treated with 500 μL of 0.2% formic acid in acetonitrile and 20 μL of an appropriate internal standard working solution. After vortexing and centrifugation, 500 µL of the sample extracts were transferred to a new plate, dried under N2 at ˜28° C. and reconstituted with 75 μL of 0.2% FA in water. The extracts were chromatographed on an Aquasil C18 column using a gradient system of 0.2% formic acid in water and acetonitrile. The analytes were detected and quantified by tandem mass spectrometry in positive ion mode on an MDS Sciex API4000 equipped with a Turbo Ionspray® interface.

[7] = Liver triphosphate pharmacokinetics after single oral dose in cynomolgus monkeys; assay type: in vivo
Procedure: as §3
as §1, with “Liver samples were analyzed for the relevant nucleoside triphosphate by LC-MS/MS. […] Appropriate internal” for “Internal”

fresh mouse hepatocytes = assay: Release of active metabolite in fresh mouse hepatocytes; assay type: in vitro ADME; conditions: 10 μM
Procedure: Plates of fresh human and mouse hepatocytes were obtained on ice. The medium was removed and replaced with hepatocyte culture medium (William's E supplemented with penicillin-streptomycin, 1% L-glutamine, 1% insulin-transferrin-selenium and 0.1 μM Dexamethasone (Invitrogen) or with Invitro GRO HI medium complemented with Torpedo antibiotics (Celsis)). Cells were left overnight in an incubator at 37° C. to acclimatize to culture and the medium.
Hepatocyte incubations were conducted at a final volume of 0.5 mL hepatocyte culture medium/well (0.8 million cells/well for human and 0.5 million cells/well for mouse; 12 well plate no overlay, collagen coat). Culture medium from overnight incubation of cells was removed and replaced with fresh medium, pre-warmed to 37° C., containing 10 μM of test compound from a stock solution in DMSO (final DMSO concentration was 0.1%). At each specific time point, incubation medium was removed and cell monolayers were carefully washed two times with ice-cold PBS. Following the last wash, all PBS was carefully removed and 1.0 mL of extraction solution (ice-cold 70% methanol/30% water) added. Cells were scraped off and suspended in the extraction solution, transferred to 2 mL polypropylene microfuge tubes and intracellular contents extracted overnight at −20° C.
After the overnight treatment the cellular extracts were prepared by centrifugation at 16,000×g for 10 min to remove cellular debris. The remaining sample was then dried using a refrigerated centrivap concentrator. Dry extracts were reconstituted in 1000 μL of HPLC-grade water and centrifuged at 16,000×g for 10 min. Aliquots (100 μL each) of the supernatant were transferred into a 96 well plate and internal standard (4 ng/mL final concentration) was added as the internal standard (IS) for LC-MS/MS analysis.
The incubation time points were 6, 24 and 48 hours for human hepatocytes and 1, 4, 8, 12 and 24 hours for mouse hepatocytes.

[8] = single oral 10 mg/kg, normalized to 1 μmol/kg dose

| SMILES | CC50 [1] [µM] | EC50 (HCV genotype 1b replicon; Hepatitis C virus, 72 h) [µM] | Ms Liver TP AUC [2] | Ms Liver TP Cmax [2] | HIM (1 hr) stability (percent remaining) [3] | Ms Plasma nucleoside AUC [4] | Ms Plasma nucleoside Cmax [4] | EC50 (HCV genotype 1b replicon; Zluc cells, 72 hours) [µM] | HLM (1 hr) stability (percent remaining) [5] | MsH AUC (fresh mouse hepatocytes) | MsH Cmax (fresh mouse hepatocytes) | also measured |
| --- | --- | --- | --- | --- | --- | --- | --- | --- | --- | --- | --- | --- |
| CCOC(=O)COP(=O)(OC[C@H]1O[C@@H](n2ccc(=O)[nH]c2=O)[C@](C)(Cl)[C@@H]1O)Oc1ccccc1 (mixture of isomers) [Compound 72 Mixture of P-Diastereoisomers] | > 50 | > 10 |  |  |  |  |  |  |  |  |  |  |
| CC(C)OC(=O)[C@H](C)NP(=O)(OC[C@H]1O[C@@H](n2ccc(=O)[nH]c2=O)[C@](C)(Cl)[C@@H]1O)Oc1ccccc1 (single isomer, unassigned) [Compound 40ii Diastereomer 1] |  |  | +++ (500 < +++ ≤ 1500) | +++ (50 < +++ ≤ 100) | +++ (50% < +++ ≤ 75%) | +++ (500 < +++ ≤ 1500) | +++ (50 < +++ ≤ 100) | 1 to 10 | + (+ ≤ 25%) |  |  | CC50 (in vitro): > 50 µM; Huh-7 TP AUC (Huh-7 cells; 10 μM): ++++ (1500 < ++++); Huh-7 TP Cmax (Huh-7 cells; 10 μM test compound): ++++ (100 < ++++); Huh-7 TP (24 hr) (Huh-7 cells; 10 μM, 24 hr): ++ (15 < ++ ≤ 50); Huh-7 TP (48 hr) (Huh-7 cells; 10 μM, 48 hr): +++ (50 < +++ ≤ 100); Huh-7 TP (72 hr) (Huh-7 cells; 10 μM, 72 hr): ++++ (100 < ++++) |
| CCOC(=O)COP(=O)(OC[C@H]1O[C@@H](n2ccc(=O)[nH]c2=O)[C@](C)(Cl)[C@@H]1O)Oc1ccccc1 (single isomer, unassigned) [Compound 72 Diastereomer 1] | > 50 | > 10 |  |  |  |  |  |  |  |  |  |  |
| CC(C)OC(=O)[C@@H](C)NP(=O)(OC[C@H]1O[C@@H](n2ccc(=O)[nH]c2=O)[C@](C)(Cl)[C@@H]1O)Oc1ccccc1 (single isomer, unassigned; diastereomer 1) [Compound 40i Diastereomer 1] |  |  |  |  | +++ (50% < +++ ≤ 75%) | +++ (500 < +++ ≤ 1500) | +++ (50 < +++ ≤ 100) | > 10 | + (+ ≤ 25%) | ++++ (1500 < ++++) | ++++ (100 < ++++) | CC50 (Zluc cells): > 50 µM; Plasma nucleoside Tmax [6]: 6 h; Plasma prodrug Tmax [6]: 2 h; Plasma nucleoside AUC0-24 ([6]; normalized to 1 μmol/kg dose): ++ (150 < ++ ≤ 500); Plasma prodrug AUC0-24 ([6]; normalized to 1 μmol/kg dose): + (+ ≤ 150); Cmax ([6]; normalized to 1 μmol/kg dose, read-out: Plasma nucleoside Cmax): 15 to 50 nM; Cmax ([6]; normalized to 1 μmol/kg dose, read-out: Plasma prodrug Cmax): ≤ 15 nM; Nucleoside triphosphate in Liver C6 ([7]; 6 hours post dose, 10 mg/kg oral, normalized to 1 μmol/kg dose): ++++ (100 < ++++); Nucleoside triphosphate in Liver Tmax ([7]; single oral 10 mg/kg): 6 h; Nucleoside triphosphate in Liver AUC0-24 [7, 8]: ++++ (1500 < ++++); Nucleoside triphosphate in Liver Cmax [7, 8]: ++++ (100 < ++++) |
| CC(C)OC(=O)[C@@H](C)NP(=O)(OC[C@H]1O[C@@H](n2ccc(=O)[nH]c2=O)[C@](C)(Cl)[C@@H]1O)Oc1ccccc1 (single isomer, unassigned; diastereomer 2) [Compound 40i Diastereomer 2] |  |  | ++++ (1500 < ++++) | ++++ (100 < ++++) | ++++ (75% < ++++) | +++ (500 < +++ ≤ 1500) | +++ (50 < +++ ≤ 100) |  | +++ (50% < +++ ≤ 75%) | +++ (500 < +++ ≤ 1500) | +++ (50 < +++ ≤ 100) |  |
